Measurements taken from patent US20250115598A1 (Anaxis Pharma Pty Ltd, priority 2021, published 2025).

Assays:
[1] = test system: Immortalised Mouse Dermal Fibroblasts (MDFs); test: Cellular assay: inhibition of TSI induced necroptosis, CellTitre-Glo viability; settings: Mus musculus, Fibroblast; MDF, 3 hours TSI cocktail, Table 27; read-out: Inhibition of TSI-induced necroptosis (IC50 cell-based assay) in MDF
Procedure, shortened: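 Necroptosis induced for 3 h with TSI: rhTNF 100 ng/ml, Smac mimetic 500 nM, caspase inhibitor IDN-6556 10 μM. Mouse dermal fibroblasts had received compound (36 μM top, ten three-fold steps) 30 min beforehand. ATP-based viability scaled between untreated and TSI-only wells; IC50 taken as 4-parameter curve inflection.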

human MLKL (full length) = human MLKL (full length) (Homo sapiens (Human), UniProt Q8NB16); test: KINOMEscan binding assay, human MLKL (full length); settings: hMLKL, Table 25; read-out: MLKL (KD)
Sequence of human MLKL (full length) (Q8NB16 whole entry): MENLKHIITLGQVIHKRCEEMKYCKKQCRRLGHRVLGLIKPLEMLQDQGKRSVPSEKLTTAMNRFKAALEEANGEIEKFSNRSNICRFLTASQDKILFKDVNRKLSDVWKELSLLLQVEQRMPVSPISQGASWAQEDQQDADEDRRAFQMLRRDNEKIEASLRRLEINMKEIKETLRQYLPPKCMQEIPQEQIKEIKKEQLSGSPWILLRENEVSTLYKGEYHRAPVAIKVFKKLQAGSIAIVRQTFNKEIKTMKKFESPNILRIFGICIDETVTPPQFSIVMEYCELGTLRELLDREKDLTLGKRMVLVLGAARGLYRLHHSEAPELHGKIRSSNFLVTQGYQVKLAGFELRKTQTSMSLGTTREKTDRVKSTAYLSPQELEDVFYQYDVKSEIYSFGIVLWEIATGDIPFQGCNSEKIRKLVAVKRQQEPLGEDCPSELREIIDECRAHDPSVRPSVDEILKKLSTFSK
Procedure, shortened: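 Binding constants were derived by fitting qPCR-quantified bead-retained kinase against compound concentration to the Hill equation, slope set at −1. Compound series were 3-fold over 11 points with 1% DMSO; most top concentrations were 30,000 nM. Kinases were T7-phage-tagged or HEK-293-produced with DNA tags.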

endogenous MLKL in MDF = endogenous MLKL in MDF (Mus musculus (Mouse), UniProt Q9D2Y4); test: Degradation assay: endogenous MLKL in MDF (western blot); settings: MDF cells, 24 h incubation with compound, MLKL adjusted for loading with GAPDH, normalized to DMSO only control, read-out: Degradation of endogenous MLKL in MDF (DC50 cell-based assay)
Sequence of endogenous MLKL in MDF (Q9D2Y4 whole entry): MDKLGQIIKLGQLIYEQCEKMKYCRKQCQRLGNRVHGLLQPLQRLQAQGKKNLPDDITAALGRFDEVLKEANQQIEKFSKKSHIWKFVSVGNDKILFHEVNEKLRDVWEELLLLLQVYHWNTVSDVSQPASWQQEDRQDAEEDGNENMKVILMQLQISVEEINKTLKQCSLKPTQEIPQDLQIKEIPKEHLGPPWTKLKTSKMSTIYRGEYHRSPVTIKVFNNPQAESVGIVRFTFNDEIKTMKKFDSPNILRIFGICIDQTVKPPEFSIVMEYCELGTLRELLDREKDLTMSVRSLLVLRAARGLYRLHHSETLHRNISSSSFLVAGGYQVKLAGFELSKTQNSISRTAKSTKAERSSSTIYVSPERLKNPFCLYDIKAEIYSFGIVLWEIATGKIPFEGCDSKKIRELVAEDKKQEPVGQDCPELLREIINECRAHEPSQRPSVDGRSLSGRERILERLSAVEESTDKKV
Procedure, shortened: (§1)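 Western blot band intensity of MLKL, adjusted to GAPDH loading and normalized to DMSO-only wells, gave percent degradation. Compound exposure lasted 24 h at final concentrations of 10–0.016 μM in 1:5 steps, in mouse dermal fibroblasts or human U937 cells.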

endogenous MLKL in U937 = endogenous MLKL in U937 (Homo sapiens (Human), UniProt Q8NB16); test: Degradation assay: endogenous MLKL in U937 (western blot); settings: U937, 24 h incubation, read-out: Degradation of endogenous MLKL in U937 (DC50 cell-based assay)
Sequence of endogenous MLKL in U937 (Q8NB16 whole entry): as the sequence (Q8NB16 whole entry) above
Procedure, shortened: as §1

Compound: C[C@H](Oc1cc(-c2nn(C)c3c(-c4cnn(C5CCN(C(=O)COc6ccc7c(c6)C(=O)N(C6CCC(=O)NC6=O)C7=O)CC5)c4)cnc(N)c23)ccc1NS(=O)(=O)C(F)F)c1ccc(F)cc1 (stereo partly drawn) [Compound 1085, N-[4-(4-amino-7-{1-[1-(2-{[2-(2,6-dioxopiperidin-3-yl)-1,3-dioxo-2,3-dihydro-1H-isoindol-5-yl]oxy}acetyl)piperidin-4-yl]-1H-pyrazol-4-yl}-1-methyl-1H-pyrazolo[4,3-c]pyridin-3-yl)-2-[(1 S)-1-(4-fluorophenyl)ethoxy]phenyl]-1,1-difluoromethanesulfonamide]
- IC50 [1]: < 1 µM
- Kd (human MLKL (full length)): < 0.01 µM
- DC50 (endogenous MLKL in MDF): 1 to 10 µM
- DC50 (endogenous MLKL in U937): < 1 µM

Compound: CCS(=O)(=O)Nc1ccc(-c2nn(C)c3c(-c4cnn(C5CCN(C(=O)CCC6CCN(c7cccc8c7C(=O)N(C7CCC(=O)NC7=O)C8=O)CC6)CC5)c4)cnc(N)c23)cc1F (stereo not drawn) [Compound 1088, N-[4-(4-amino-7-{1-[1-(3-{1-[2-(2,6-dioxopiperidin-3-yl)-1,3-dioxo-2,3-dihydro-1H-isoindol-4-yl]piperidin-4-yl}propanoyl)piperidin-4-yl]-1H-pyrazol-4-yl}-1-methyl-1H-pyrazolo[4,3-c]pyridin-3-yl}-2-fluorophenyl]ethane-1-sulfonamide]
- IC50 [1]: < 1 µM
- Kd (human MLKL (full length)): < 0.01 µM
- DC50 (endogenous MLKL in MDF): < 1 µM
- DC50 (endogenous MLKL in U937): < 1 µM

Compound: C[C@H](Oc1cc(-c2nn(C)c3c(-c4cnn(C5CCN(CCCN6CCN(C(=O)COc7ccc8c(c7)C(=O)N(C7CCC(=O)NC7=O)C8=O)CC6)CC5)c4)cnc(N)c23)ccc1NS(=O)(=O)C(F)F)c1ccc(F)cc1 (stereo partly drawn) [Compound 1091, N-(4-{4-amino-7-[1-(1-{3-[4-(2-{[2-(2,6-dioxopiperidin-3-yl)-1,3-dioxo-2,3-dihydro-1H-isoindol-5-yl]oxy}acetyl)piperazin-1-yl]propyl}piperidin-4-yl)-1H-pyrazol-4-yl]-1-methyl-1H-pyrazolo[4,3-c]pyridin-3-yl}-2-[(1S)-1-(4-fluorophenyl)ethoxy]phenyl)-1,1-difluoromethanesulfonamide]
- IC50 [1]: < 1 µM
- Kd (human MLKL (full length)): < 0.01 µM
- DC50 (endogenous MLKL in MDF): < 1 µM
- DC50 (endogenous MLKL in U937): < 1 µM

Compound: C[C@H](Oc1cc(-c2nn(C)c3c(-c4cnn(C5CCN(C(=O)c6ccc(CNc7cccc8c7C(=O)N(C7CCC(=O)NC7=O)C8=O)cc6)CC5)c4)cnc(N)c23)ccc1NS(=O)(=O)C(F)F)c1ccc(F)cc1 (stereo partly drawn) [Compound 1093, N-{4-[4-amino-7-(1-{1-[4-({[2-(2,6-dioxopiperidin-3-yl)-1,3-dioxo-2,3-dihydro-1H-isoindol-4-yl]amino}methyl)benzoyl]piperidin-4-yl}-1H-pyrazol-4-yl)-1-methyl-1H-pyrazolo[4,3-c]pyridin-3-yl]-2-[(1S)-1-(4-fluorophenyl)ethoxy]phenyl}-1,1-difluoromethanesulfonamide]
- IC50 [1]: < 1 µM
- Kd (human MLKL (full length)): 0.01 to 1 µM
- DC50 (endogenous MLKL in MDF): < 1 µM
- DC50 (endogenous MLKL in U937): < 1 µM

Compound: C[C@H](Oc1cc(-c2nn(C)c3c(-c4cnn(C5CCN(Cc6cccc(CNc7cccc8c7C(=O)N(C7CCC(=O)NC7=O)C8=O)c6)CC5)c4)cnc(N)c23)ccc1NS(=O)(=O)C(F)F)c1ccc(F)cc1 (stereo partly drawn) [Compound 1095, N-(4-{4-amino-7-[1-(1-{[3-{{[2-(2,6-dioxopiperidin-3-yl)-1,3-dioxo-2,3-dihydro-1H-isoindol-4-yl]amino}methyl)phenyl]methyl}piperidin-4-yl)-1H-pyrazol-4-yl]-1-methyl-1H-pyrazolo[4,3-c]pyridin-3-yl}-2-[(1S)-1-(4-fluorophenyl)ethoxy]phenyl)-1,1-difluoromethane-sulfonamide]
- IC50 [1]: < 1 µM
- Kd (human MLKL (full length)): 0.01 to 1 µM
- DC50 (endogenous MLKL in MDF): < 1 µM
- DC50 (endogenous MLKL in U937): < 1 µM

Compound: C[C@H](Oc1cc(-c2nn(C)c3c(-c4cnn(C5CCN(C(=O)CC(=O)N6CCN(c7cccc8c7C(=O)N(C7CCC(=O)NC7=O)C8=O)CC6)CC5)c4)cnc(N)c23)ccc1NS(=O)(=O)C(F)F)c1ccc(F)cc1 (stereo partly drawn) [Compound 1098, N-[4-(4-amino-7-{1-[1-(3-{4-[2-(2,6-dioxopiperidin-3-yl)-1,3-dioxo-2,3-dihydro-1H-isoindol-4-yl]piperazin-1-yl}-3-oxopropanoyl)piperidin-4-yl]-1H-pyrazol-4-yl}-1-methyl-1H-pyrazolo[4,3-c]pyridin-3-yl)-2-[(1S)-1-(4-fluorophenyl)ethoxy]phenyl]-1,1-difluoromethanesulfonamide]
- IC50 [1]: 1 to 10 µM
- Kd (human MLKL (full length)): < 0.01 µM
- DC50 (endogenous MLKL in MDF): < 1 µM
- DC50 (endogenous MLKL in U937): < 1 µM

Compound: C[C@H](Oc1cc(-c2nn(C)c3c(-c4cnn(C5CCN(CCCN6CCN(C(=O)COc7cccc8c7C(=O)N(C7CCC(=O)NC7=O)C8=O)CC6)CC5)c4)cnc(N)c23)ccc1NS(=O)(=O)C(F)F)c1ccc(F)cc1 (stereo partly drawn) [Compound 1099, N-(4-{4-amino-7-[1-(1-{3-[4-(2-{[2-(2,6-dioxopiperidin-3-yl)-1,3-dioxo-2,3-dihydro-1H-isoindol-4-yl]oxy}acetyl)piperazin-1-yl]propyl}piperidin-4-yl)-1H-pyrazol-4-yl]-1-methyl-1H-pyrazolo[4,3-c]pyridin-3-yl}-2-[(1S)-1-(4-fluorophenyl)ethoxy]phenyl)-1,1-difluoromethanesulfonamide]
- IC50 [1]: 1 to 10 µM
- Kd (human MLKL (full length)): < 0.01 µM
- DC50 (endogenous MLKL in MDF): 1 to 10 µM
- DC50 (endogenous MLKL in U937): < 1 µM

Compound: C[C@H](Oc1cc(-c2nn(C)c3c(-c4cnn(C5CCN(C[C@H]6C[C@H](Nc7cccc8c7C(=O)N(C7CCC(=O)NC7=O)C8=O)C6)CC5)c4)cnc(N)c23)ccc1NS(=O)(=O)C(F)F)c1ccc(F)cc1 (stereo partly drawn) [Compound 1108, N-(4-{4-amino-1-methyl-7-[1-(1-{[(trans)-3-{[2-(2,6-dioxopiperidin-3-yl)-1,3-dioxo-2,3-dihydro-1H-isoindol-4-yl]amino}cyclobutyl]methyl}piperidin-4-yl)-1H-pyrazol-4-yl]-1H-pyrazolo[4,3-c]pyridin-3-yl}-2-[(1S)-1-(4-fluorophenyl)ethoxy]phenyl)-1,1-difluoromethane-sulfonamide]
- IC50 [1]: < 1 µM
- Kd (human MLKL (full length)): < 0.01 µM
- DC50 (endogenous MLKL in MDF): < 1 µM
- DC50 (endogenous MLKL in U937): 1 to 10 µM

Compound: C[C@H](Oc1cc(-c2nn(C)c3c(C#CC(=O)N[C@H]4C[C@H](Nc5cccc6c5C(=O)N(C5CCC(=O)NC5=O)C6=O)C4)cnc(N)c23)ccc1NS(=O)(=O)C(F)F)c1ccc(F)cc1 (stereo partly drawn) [Compound 1109, 3-{4-amino-3-[4-(difluoromethanesulfonamido)-3-[(1S)-1-(4-fluorophenyl)ethoxy]phenyl]-1-methyl-1H-pyrazolo[4,3-c]pyridin-7-yl}-N-[(trans)-3-{[2-(2,6-dioxopiperidin-3-yl)-1,3-dioxo-2,3-dihydro-1H-isoindol-4-yl]amino}cyclobutyl]prop-2-ynamide]
- IC50 [1]: 1 to 10 µM
- Kd (human MLKL (full length)): < 0.01 µM
- DC50 (endogenous MLKL in MDF): < 1 µM
- DC50 (endogenous MLKL in U937): < 1 µM

Compound: Cn1nc(-c2ccc(NS(=O)(=O)C(F)F)c(F)c2)c2c(N)ncc(-c3cnn(C4CCN(C(=O)CCC5CCN(c6cccc7c6C(=O)N(C6CCC(=O)NC6=O)C7=O)CC5)CC4)c3)c21 (stereo not drawn) [Compound 1113, N-[4-(4-amino-7-{1-[1-(3-{1-[2-(2,6-dioxopiperidin-3-yl)-1,3-dioxo-2,3-dihydro-1H-isoindol-4-yl]piperidin-4-yl}propanoyl)piperidin-4-yl]-1H-pyrazol-4-yl}-1-methyl-1H-pyrazolo[4,3-c]pyridin-3-yl}-2-fluorophenyl]-1,1-difluoromethanesulfonamide]
- IC50 [1]: 1 to 10 µM
- Kd (human MLKL (full length)): < 0.01 µM
- DC50 (endogenous MLKL in MDF): < 1 µM
- DC50 (endogenous MLKL in U937): < 1 µM

Compound: C[C@H](Oc1cc(-c2nn(C)c3c(-c4cnn(C5CCN(Cc6ccc(CNc7cccc8c7C(=O)N(C7CCC(=O)NC7=O)C8=O)cc6)CC5)c4)cnc(N)c23)ccc1NS(=O)(=O)C(F)F)c1ccc(F)cc1 (stereo partly drawn) [Compound 1115, N-(4-{4-amino-7-[1-(1-{[4-({[2-(2,6-dioxopiperidin-3-yl)-1,3-dioxo-2,3-dihydro-1H-isoindol-4-yl]amino}methyl)phenyl]methyl}piperidin-4-yl)-1H-pyrazol-4-yl]-1-methyl-1H-pyrazolo[4,3-c]pyridin-3-yl}-2-[(1S)-1-(4-fluorophenyl)ethoxy]phenyl)-1,1-difluoromethanesulfonamide]
- IC50 [1]: < 1 µM
- Kd (human MLKL (full length)): 0.01 to 1 µM
- DC50 (endogenous MLKL in MDF): < 1 µM
- DC50 (endogenous MLKL in U937): < 1 µM

Compound: C[C@H](Oc1cc(-c2nn(C)c3c(-c4cnn(C5CCC(C(=O)N6CCN(c7cccc8c7C(=O)N(C7CCC(=O)NC7=O)C8=O)CC6)N(C)C5)c4)cnc(N)c23)ccc1NS(=O)(=O)C(F)F)c1ccc(F)cc1 (stereo partly drawn) [Compound 1121, N-(4-{4-amino-7-[1-(6-{4-[2-(2,6-dioxopiperidin-3-yl)-1,3-dioxo-2,3-dihydro-1H-isoindol-4-yl]piperazine-1-carbonyl}-1-methylpiperidin-3-yl)-1H-pyrazol-4-yl]-1-methyl-1H-pyrazolo[4,3-c]pyridin-3-yl}-2-[(1S)-1-(4-fluorophenyl)ethoxy]phenyl)-1,1-difluoromethanesulfonamide]
- IC50 [1]: < 1 µM
- Kd (human MLKL (full length)): < 0.01 µM
- DC50 (endogenous MLKL in MDF): < 1 µM
- DC50 (endogenous MLKL in U937): < 1 µM
